From US11345681B1, “Inhibitors of fibroblast growth factor receptor kinases” (Kinnate Biopharma Inc., priority 2020, dated 2022)

What follows are compounds tested against Wild type FGFR2 (Homo sapiens (Human), UniProt P21802) (assay: FGFR2 kinase assay (fluorescence-based microfluidic mobility shift assay)). Conditions: not given.
Format: biochemical

Sequence of Wild type FGFR2 (P21802 22-821): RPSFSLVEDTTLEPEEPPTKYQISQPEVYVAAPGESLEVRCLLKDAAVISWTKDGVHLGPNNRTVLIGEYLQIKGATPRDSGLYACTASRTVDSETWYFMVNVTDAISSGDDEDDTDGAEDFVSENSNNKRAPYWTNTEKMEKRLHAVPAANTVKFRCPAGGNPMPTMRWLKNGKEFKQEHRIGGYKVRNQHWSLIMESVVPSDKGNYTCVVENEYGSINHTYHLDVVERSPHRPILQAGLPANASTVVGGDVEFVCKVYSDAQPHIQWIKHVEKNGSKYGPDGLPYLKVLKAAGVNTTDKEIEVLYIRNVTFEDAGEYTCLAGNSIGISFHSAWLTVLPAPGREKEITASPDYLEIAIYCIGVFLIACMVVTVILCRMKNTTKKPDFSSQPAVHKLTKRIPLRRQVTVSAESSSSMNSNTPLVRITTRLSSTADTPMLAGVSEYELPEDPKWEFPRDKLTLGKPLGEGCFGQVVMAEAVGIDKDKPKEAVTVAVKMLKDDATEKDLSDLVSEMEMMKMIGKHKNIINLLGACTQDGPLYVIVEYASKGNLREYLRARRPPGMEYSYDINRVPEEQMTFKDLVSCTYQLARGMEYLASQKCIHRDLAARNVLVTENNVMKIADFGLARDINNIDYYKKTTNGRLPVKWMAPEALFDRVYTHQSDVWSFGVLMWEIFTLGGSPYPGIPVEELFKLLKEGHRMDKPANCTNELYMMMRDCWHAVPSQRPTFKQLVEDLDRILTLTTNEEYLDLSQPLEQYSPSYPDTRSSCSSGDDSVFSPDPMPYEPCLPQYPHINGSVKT

SMILES	IC50 [nM]
C=CC(=O)N1C[C@@H](n2nc(C#Cc3cc4nccc(C)c4cc3F)c(C(N)=O)c2NC)C[C@@H]1COC [Example 274, 3-[2-(6-Fluoro-4-methylquinolin-7-yl)ethynyl]-1-[(3S,5R)-5-(methoxymethyl)-1-(prop-2-enoyl)pyrrolidin-3-yl]-5-(methylamino)pyrazole-4-carboxamide]	< 100
C=CC(=O)N1C[C@@H](n2nc(C#Cc3cc4nccc(C)c4cc3Cl)c(C(N)=O)c2NC)C[C@@H]1COC [Example 281, 3-[2-(6-chloro-4-methylquinolin-7-yl)ethynyl]-1-[(3S,5R)-5-(methoxymethyl)-1-(prop-2-enoyl)pyrrolidin-3-yl]-5-(methylamino)pyrazole-4-carboxamide]	< 100

Same assay, conditions: wild type FGFR2 0.06 nM, 100 μM ATP, 80 minutes at room temperature; class symbols

SMILES	IC50 [nM]
C=CC(=O)N1C[C@@H](n2nc(C#Cc3c(F)cc4c(ncn4C4CC4)c3F)c(C(N)=O)c2NCCO)C[C@@H]1COC [Example 251, 3-[2-(1-Cyclopropyl-4,6-difluoro-1,3-benzodiazol-5-yl)ethynyl]-5-[(2-hydroxyethyl)amino]-1-[(3S,5R)-5-(methoxymethyl)-1-(prop-2-enoyl)pyrrolidin-3-yl]pyrazole-4-carboxamide]	≤ 100
C=CC(=O)N1C[C@@H](n2nc(C#Cc3cc4nc(C)n(C5CC5)c4cc3F)c(C(N)=O)c2NCCO)C[C@@H]1COC [Example 252, 3-[2-(1-Cyclopropyl-6-fluoro-2-methyl-1,3-benzodiazol-5-yl)ethynyl]-5-[(2-hydroxyethyl)amino]-1-[(3S,5R)-5-(methoxymethyl)-1-(prop-2-enoyl)pyrrolidin-3-yl]pyrazole-4-carboxamide]	≤ 100
C=CC(=O)N1C[C@@H](n2nc(C#Cc3cc4nc(C)n(C5CC5)c4cc3Cl)c(C(N)=O)c2NCCO)C[C@@H]1COC [Example 253, 1-((3S,5R)-1-Acryloyl-5-(methoxymethyl)pyrrolidin-3-yl)-3-((6-chloro-1-cyclopropyl-2-methyl-1H-benzo[d]imidazol-5-yl)ethynyl)-5-((2-hydroxyethyl)amino)-1H-pyrazole-4-carboxamide]	≤ 100
C=CC(=O)N1C[C@@H](n2nc(C#Cc3cc4c(cc3F)OCO4)c(C(N)=O)c2NC)C[C@@H]1COC [Example 254, 3-[2-(6-Fluoro-2H-1,3-benzodioxol-5-yl)ethynyl]-1-[(3S,5R)-5-(methoxymethyl)-1-(prop-2-enoyl)pyrrolidin-3-yl]-5-(methylamino)pyrazole-4-carboxamide]	≤ 100
C=CC(=O)N1C[C@@H](n2nc(C#Cc3cc4ncc(Cl)cc4cc3F)c(C(N)=O)c2NC)C[C@@H]1COC [Example 256, 3-[2-(3-Chloro-6-fluoroquinolin-7-yl)ethynyl]-1-[(3S,5R)-5-(methoxymethyl)-1-(prop-2-enoyl)pyrrolidin-3-yl]-5-(methylamino)pyrazole-4-carboxamide]	≤ 100
C=CC(=O)N1C[C@@H](n2nc(C#Cc3cc4ncc(C)n4cc3F)c(C(N)=O)c2NC)C[C@@H]1COC [Example 257, 1-((3S,5R)-1-Acryloyl-5-(methoxymethyl)pyrrolidin-3-yl)-3-((6-fluoro-3 methylimidazo[1,2-a]pyridin-7-yl)ethynyl)-5-(methylamino)-1H-pyrazole-4-carboxamide]	≤ 100
C=CC(=O)N1C[C@@H](n2nc(C#Cc3cc4ncc(C)cc4cc3Cl)c(C(N)=O)c2NC)C[C@@H]1COC [Example 258, 3-[2-(6-Chloro-3-methylquinolin-7-yl)ethynyl]-1-[(3S,5R)-5-(methoxymethyl)-1-(prop-2-enoyl)pyrrolidin-3-yl]-5-(methylamino)pyrazole-4-carboxamide]	≤ 100
C=CC(=O)N1C[C@@H](n2nc(C#Cc3cc4nc5n(c4cc3F)CCC5)c(C(N)=O)c2NC)C[C@@H]1COC [Example 260, 1-((3S,5R)-1-acryloyl-5-(methoxymethyl)pyrrolidin-3-yl)-3-((7-fluoro-2,3-dihydro-1H-benzo[d]pyrrolo[1,2-a]imidazol-6-yl)ethynyl)-5-(methylamino)-1H-pyrazole-4-carboxamide]	≤ 100
C=CC(=O)N1C[C@@H](n2nc(C#Cc3cc4ncc(C5CC5)n4cc3Cl)c(C(N)=O)c2NC)C[C@@H]1COC [Example 261, 3-(2-{6-Chloro-3-cyclopropylimidazo[1,2-a]pyridin-7-yl}ethynyl)-1-[(3S,5R)-5-(methoxymethyl)-1-(prop-2-enoyl)pyrrolidin-3-yl]-5-(methylamino)pyrazole-4-carboxamide]	≤ 100
C=CC(=O)N1C[C@@H](n2nc(C#Cc3cc4ncc(C#N)n4cc3F)c(C(N)=O)c2NC)C[C@@H]1COC [Example 262, 3-(2-{3-Cyano-6-fluoroimidazo[1,2-a]pyridin-7-yl}ethynyl)-1-[(3S,5R)-5-(methoxymethyl)-1-(prop-2-enoyl)pyrrolidin-3-yl]-5-(methylamino)pyrazole-4-carboxamide]	≤ 100

Now from value to compound:

IC50 [nM]	SMILES
≤ 100	C=CC(=O)N1C[C@@H](n2nc(C#Cc3ccc4c(C#N)cnn4c3)c(C(N)=O)c2NC)C[C@@H]1COC [Example 263, 3-(2-{3-Cyanopyrazolo[1,5-a]pyridin-6-yl}ethynyl)-1-[(3S,5R)-5-(methoxymethyl)-1-(prop-2-enoyl)pyrrolidin-3-yl]-5-(methylamino)pyrazole-4-carboxamide]
≤ 100	C=CC(=O)N1C[C@@H](n2nc(C#Cc3cc4ncc(F)cc4cc3F)c(C(N)=O)c2NC)C[C@@H]1COC [Example 264, 3-[2-(3,6-Difluoroquinolin-7-yl)ethynyl]-1-[(3S,5R)-5-(methoxymethyl)-1-(prop-2-enoyl)pyrrolidin-3-yl]-5-(methylamino)pyrazole-4-carboxamide]
≤ 100	C=CC(=O)N1C[C@@H](n2nc(C#Cc3cc4ncc(C)cc4cc3C)c(C(N)=O)c2NC)C[C@@H]1COC [Example 265, 3-[2-(3,6-Dimethylquinolin-7-yl)ethynyl]-1-[(3S,5R)-5-(methoxymethyl)-1-(prop-2-enoyl)pyrrolidin-3-yl]-5-(methylamino)pyrazole-4-carboxamide]
≤ 100	C=CC(=O)N1C[C@@H](n2nc(C#Cc3cc4nncc(C)c4cc3F)c(C(N)=O)c2NC)C[C@@H]1COC [Example 266, 1-((3S,5R)-1-Acryloyl-5-(methoxymethyl)pyrrolidin-3-yl)-3-((6-fluoro-4-methylcinnolin-7-yl)ethynyl)-5-(methylamino)-1H-pyrazole-4-carboxamide]
≤ 100	C=CC(=O)N1C[C@@H](n2nc(C#Cc3cc4ncc(F)cc4cc3Cl)c(C(N)=O)c2NC)C[C@@H]1COC [Example 267, 3-[2-(6-Chloro-3-fluoroquinolin-7-yl)ethynyl]-1-[(3S,5R)-5-(methoxymethyl)-1-(prop-2-enoyl)pyrrolidin-3-yl]-5-(methylamino)pyrazole-4-carboxamide]
≤ 100	C=CC(=O)N1C[C@@H](n2nc(C#Cc3cc4nncc(C)c4cc3Cl)c(C(N)=O)c2NC)C[C@@H]1COC [Example 268, 1-((3S,5R)-1-acryloyl-5-(methoxymethyl)pyrrolidin-3-yl)-3-((6-chloro-4-methylcinnolin-7-yl)ethynyl)-5-(methylamino)-1H-pyrazole-4-carboxamide]
≤ 100	C=CC(=O)N1C[C@@H](n2nc(C#Cc3cc(OC)c4c(C#N)cnn4c3)c(C(N)=O)c2NC)C[C@@H]1COC [Example 270, 1-((3S,5R)-1-acryloyl-5-(methoxymethyl)pyrrolidin-3-yl)-3-((3-cyano-4-methoxypyrazolo[1,5-a]pyridin-6-yl)ethynyl)-5-(methylamino)-1H-pyrazole-4-carboxamide]
≤ 100	C=CC(=O)N1C[C@@H](n2nc(C#Cc3cc4ncc(C(F)F)cc4cc3F)c(C(N)=O)c2NC)C[C@@H]1COC [Example 273, 3-{2-[3-(Difluoromethyl)-6-fluoroquinolin-7-yl]ethynyl}-1-[(3S,5R)-5-(methoxymethyl)-1-(prop-2-enoyl)pyrrolidin-3-yl]-5-(methylamino)pyrazole-4-carboxamide]
≤ 100	C=CC(=O)N1C[C@@H](n2nc(C#Cc3cccc4c3cnn4C)c(C(N)=O)c2NC)C[C@@H]1COC [Example 275, 1-((3S,5R)-1-Acryloyl-5-(methoxymethyl)pyrrolidin-3-yl)-3-((1-methyl-1H-indazol-4-yl)ethynyl)-5-(methylamino)-1H-pyrazole-4-carboxamide]
≤ 100	C=CC(=O)N1C[C@@H](n2nc(C#Cc3cccc4c3cnn4C3CC3)c(C(N)=O)c2NC)C[C@@H]1COC [Example 276, 3-[2-(1-Cyclopropylindazol-4-yl)ethynyl]-1-[(3S,5R)-5-(methoxymethyl)-1-(prop-2-enoyl)pyrrolidin-3-yl]-5-(methylamino)pyrazole-4-carboxamide]
≤ 100	C=CC(=O)N1C[C@@H](n2nc(C#Cc3cccn4cncc34)c(C(N)=O)c2NC)C[C@@H]1COC [Example 277, 3-(2-{Imidazo[1,5-a]pyridin-8-yl}ethynyl)-1-[(3S,5R)-5-(methoxymethyl)-1-(prop-2-enoyl)pyrrolidin-3-yl]-5-(methylamino)pyrazole-4-carboxamide]
≤ 100	C=CC(=O)N1C[C@@H](n2nc(C#Cc3cccc4cncn34)c(C(N)=O)c2NC)C[C@@H]1COC [Example 278, 3-(2-{Imidazo[1,5-a]pyridin-5-yl}ethynyl)-1-[(3S,5R)-5-(methoxymethyl)-1-(prop-2-enoyl)pyrrolidin-3-yl]-5-(methylamino)pyrazole-4-carboxamide]
≤ 100	C=CC(=O)N1C[C@@H](n2nc(C#Cc3cc4ncc(C5CC5)n4cc3F)c(C(N)=O)c2NC)C[C@@H]1COC [Example 283, 3-(2-{3-Cyclopropyl-6-fluoroimidazo[1,2-a]pyridin-7-yl}ethynyl)-1-[(3S,5R)-5-(methoxymethyl)-1-(prop-2-enoyl)pyrrolidin-3-yl]-5-(methylamino)pyrazole-4-carboxamide]
100 to 1000	C=CC(=O)N1C[C@@H](n2nc(C#Cc3cc(OC)c4c(C5CC5)cnn4c3)c(C(N)=O)c2NC)C[C@@H]1COC [Example 284, 3-(2-{3-Cyclopropyl-4-methoxypyrazolo[1,5-a]pyridin-6-yl}ethynyl)-1-[(3S,5R)-5-(methoxymethyl)-1-(prop-2-enoyl)pyrrolidin-3-yl]-5-(methylamino)pyrazole-4-carboxamide]
